Measured values taken from paper PMC6288471 (Frontiers in Veterinary Science, 2018).
Entries after “also recorded” stand apart in the source; their conditions may differ. Like-named read-outs stand apart in the source and are kept apart here.

Assay: Pharmacokinetics of apixaban after oral and intravenous administration; plasma concentrations by UPLC-MS, two-compartment model
Type: in vivo
Conditions: horses; for half-life / clearance / Vd: iv
Protocol: The first and last treatments for each horse were IV administration of drug or placebo (Figure 1). […] Investigators were blinded to each treatment until the conclusion of the study.
Blood samples were collected before drug administration (time 0) and at 3 (IV) or 15 (PO) min, then at 30, 45 min, 1, 2, 3, 4, 6, 8, and 24 h after drug administration into 6-mL syringes (Monoject Syringe, Covidien Ltd, Mansfield, MA, USA) prefilled with 3.8% citrate anticoagulant (Sigma-Aldrich, St Louis, MO, USA) maintaining a ratio of 9:1 blood:citrate. The citrate-anticoagulated blood was used to prepare platelet-poor plasma (PPP) for measurement of UPLC-MS concentrations, anti-Xa activities and dilute prothrombin times (dPT) and platelet-rich plasma (PRP) for flow cytometric analysis of ex vivo platelet activation in response to exposure to EHV-1. Blood was also collected into EDTA- and non-anticoagulant samples for clinical pathologic testing before and 24 h after each treatment (Figure 1). With the exception of 24 h samples, blood was collected at each time point through an indwelling jugular catheter (14 G × 15 cm, Milacath®, MILA International, Florence, KY, USA) after removing 20–30 mL of blood. Patency of the catheters was maintained by flushes with sterile saline solution (0.9% sodium chloride injection USP, Baxter Healthcare Corporation, Deerfield, IL, USA) after each blood draw. The catheter was removed after collection of the 8 h sample. For IV administration, a second catheter was placed in the opposite jugular vein for bolus drug delivery and removed immediately after drug administration and flushing of the catheter with sterile saline. For the 24 h sample, blood was collected from the jugular vein (the vein contralateral to that used for the indwelling catheter) into a 3.8% citrate anticoagulant prefilled 6-mL syringe via an 18 G needle (Monoject Veterinary Needle, Covidien Ltd, Mansfield, MA, USA) and into EDTA- and non-anticoagulant vacutainers (Becton-Dickinson, Franklin Lakes, NJ, USA) via a vacutainer needle (21 G, Becton-Dickinson Eclipse™ Vacutainer® with pre-attached holder).
This was performed as previously described ([33]). Analysis by UPLC-MS/MS was performed on a 2D UPLC system (Waters Acquity UPLC H-class with 2D Technology System, Waters GmbH, Eschborn, Germany) directly coupled to a Xevo TQ-S tandem mass spectrometer (Waters GmbH, Eschborn, Germany) which was operated in electrospray positive ionization mode. The system control and data acquisition were performed using MassLynx NT 4.1 software with automated data processing by the MassLynx QuanLynx program provided with the instrument. The lower limit of detection for all DOACs of the UPLC-MS/MS method was < 0.2 ng/mL. Since DOAC values < 7 ng/ml were not clinically relevant, all time points below this value were considered zero.
Pharmacokinetic analysis was performed using a two-compartment open model with weighting of 1/y^2 (Phoenix®, WinNonlin® software, Certara Inc., St. Louis, Missouri).
Secondary parameters calculated include distribution (α) and elimination (β) half-lives (T½), microdistribution rate constants, area-under-the-curve (AUC), apparent volume of distribution at steady-state (VSS), systemic clearance (CL), and mean residence time (MRT).

[1] = single oral dose 0.2 mg/kg, 0.2 mg/kg

COc1ccc(-n2nc(C(N)=O)c3c2C(=O)N(c2ccc(N4CCCCC4=O)cc2)CC3)cc1 [apixaban]
half-life (horse, plasma, IV administration, read-out: elimination half-life (converted)): 1.3 ± 0.2 h | clearance (horse, plasma, IV administration, read-out: rate of clearance (converted)): 2.53 mL/min/kg | Vd (horse, plasma, IV administration, read-out: volume of distribution (VDSS)): 0.0933 ± 0.0756 L/kg | Tmax (horse, plasma, IV administration, read-out: time of peak plasma concentration (converted)): 3 min | volume of distribution (VDSS) (IV administration): ~ 90 mL/kg | time by which plasma apixaban decreased to undetectable levels (IV administration, all horses): ≤ 8 h | apixaban in plasma after oral administration (UPLC-MS) [1]: no detectable apixaban in plasma; also recorded: not detected in plasma | oral absorption [1]: not orally absorbed | clearance (plasma, single IV dose […], read-out: CL (systemic clearance), geometric mean (converted)): 2.45 mL/min/kg | clearance (plasma, single IV dose […], read-out: CL (systemic clearance), mean (converted)): 2.53 mL/min/kg | Vd (plasma, single IV dose […], read-out: VC (apparent volume of distribution for central compartment), geometric mean): 0.0164 L/kg | Vd (plasma, single IV dose […], read-out: VC (apparent volume of distribution for central compartment), mean): 0.0201 L/kg | Vd (plasma, single IV dose […], read-out: VSS (volume of distribution at steady-state), geometric mean): 0.0718 L/kg | Vd (plasma, single IV dose […], read-out: VSS (volume of distribution at steady-state), mean): 0.0933 L/kg | half-life (plasma, single IV dose […], read-out: t½β (half-life of the elimination phase), geometric mean (converted)): 1.27 h | half-life (plasma, single IV dose […], read-out: t½β (half-life of the elimination phase), mean (converted)): 1.28 h
